pIC50: −log10 of the molar value.
Biological target: T1, Dihydrofolate reductase (Pneumocystis jirovecii (strain RU7), UniProt A0A0W4ZHR8)
T1 sequence (A0A0W4ZHR8 whole entry): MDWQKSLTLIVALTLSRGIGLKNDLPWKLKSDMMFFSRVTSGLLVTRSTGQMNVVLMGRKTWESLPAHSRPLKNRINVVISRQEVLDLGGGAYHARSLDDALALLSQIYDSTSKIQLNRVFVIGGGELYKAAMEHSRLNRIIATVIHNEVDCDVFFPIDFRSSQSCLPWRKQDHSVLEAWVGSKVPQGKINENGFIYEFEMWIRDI
Test: Not found
Source text: Not found

| SMILES | pIC50 |
| --- | --- |
| COc1ccccc1Sc1sc2nc(N)nc(N)c2c1C [US11001595, Compound 2] | 6.75 |
| COc1ccc(Sc2sc3nc(N)nc(N)c3c2C)cc1 [US11001595, Compound 4] | 6.60 |
